According to ChEMBL document CHEMBL2203030, “Synthesis, characterization, antidepressant and antioxidant activity of novel piperamides bearing piperidine and piperazine analogues” (Bioorg Med Chem Lett, 2012):
Values after ≈ are worked out from the molar mass of the structure shown.

Experiments:
Format in all cases: functional
Aspergillus flavus [1] = assay: Antimicrobial activity against Aspergillus flavus NCIM 524 at 10 ug/disc incubated for 48 hrs by agar disc diffusion method; details: NCIM 524, 48 h
Aspergillus flavus [2] = assay: Antimicrobial activity against Aspergillus flavus NCIM 524 at 100 ug/mL incubated for 48 hrs by agar disc diffusion method; details: NCIM 524, 48 h, read-out: IZ
Candida albicans [3] = assay: Antimicrobial activity against Candida albicans NCIM 3471 at 10 ug/disc incubated for 48 hrs by agar disc diffusion method; details: NCIM 3471, 48 h, read-out: IZ
Candida albicans [4] = assay: Antimicrobial activity against Candida albicans NCIM 3471 by broth dilution method

Compound: OC(Cn1cncn1)(Cn1cncn1)c1ccc(F)cc1F [FLUCONAZOLE]
- MIC (Aspergillus flavus [1]): 5 µg/mL (≈ 16.3 µM)
- zone of inhibition at 100 µg/mL (Aspergillus flavus [2]): 19 mm
- zone of inhibition at 10 µg/disc (Candida albicans [3]): 16 mm
- MIC (Candida albicans [4]): 5 µg/mL (≈ 16.3 µM)
